# Results as given in patent US11718604B2, “4-amino-6-(1,3-benzodioxole)picolinates and their use as herbicides” (Dow AgroSciences LLC, priority 2018, dated 2023).
# Columns and labels:
# Assay type in all cases: in vivo
# [1] = system: ECHCG: barnyardgrass (Echinochloa crus-galli); experiment: Post-emergent herbicidal test, barnyardgrass; conditions: post-emergence, 336 h, 14 days after application, read-out: Visual Growth Reduction (%) 14 Days After Application ECHCG; for pest or weed control at 17.5 g/ha: 17.5 g ai/ha; for pest or weed control at 35 g/ha: 35 g ai/ha; for pest or weed control at 70 g/ha: 70 g ai/ha; for pest or weed control at 140 g/ha: 140 g ai/ha
# Outline: (§1)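 Greenhouse-grown plants at the first or second true leaf stage (7-21 d, ~15 h photoperiod, 23-29° C day) were sprayed overhead at 187 L/ha with compound in acetone/DMSO-based spray solution containing crop oil concentrate and surfactant. Injury was scored visually after 14 d, 0-100% versus untreated plants.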
# [2] = system: BRSNN: oilseed rape, canola (Brassica napus); experiment: Post-emergent herbicidal test, oilseed rape; conditions: post-emergence, 336 h, 14 days after application, read-out: Visual Growth Reduction (%) 14 Days After Application BRSNN; for pest or weed control at 17.5 g/ha: 17.5 g ai/ha; for pest or weed control at 35 g/ha: 35 g ai/ha; for pest or weed control at 70 g/ha: 70 g ai/ha; for pest or weed control at 140 g/ha: 140 g ai/ha
# Outline: as §1
# [3] = system: SORVU: shattercane (Sorghum bicolor); experiment: Post-emergent herbicidal test, shattercane; conditions: post-emergence, 336 h, 14 days after application, read-out: Visual Growth Reduction (%) 14 Days After Application SORVU; for pest or weed control at 17.5 g/ha: 17.5 g ai/ha; for pest or weed control at 35 g/ha: 35 g ai/ha; for pest or weed control at 70 g/ha: 70 g ai/ha; for pest or weed control at 140 g/ha: 140 g ai/ha
# Outline: as §1
# [4] = system: IPOHE: ivyleaf morningglory (Ipomoea hederacea); experiment: Post-emergent herbicidal test, ivyleaf morningglory; conditions: post-emergence, 336 h, 14 days after application, read-out: Visual Growth Reduction (%) 14 Days After Application IPOHE; for pest or weed control at 17.5 g/ha: 17.5 g ai/ha; for pest or weed control at 35 g/ha: 35 g ai/ha; for pest or weed control at 70 g/ha: 70 g ai/ha; for pest or weed control at 140 g/ha: 140 g ai/ha
# Outline: as §1
# [5] = system: ABUTH: velvetleaf (Abutilon theophrasti); experiment: Post-emergent herbicidal test, velvetleaf; conditions: post-emergence, 336 h, 14 days after application, read-out: Visual Growth Reduction (%) 14 Days After Application ABUTH; for pest or weed control at 17.5 g/ha: 17.5 g ai/ha; for pest or weed control at 35 g/ha: 35 g ai/ha; for pest or weed control at 70 g/ha: 70 g ai/ha; for pest or weed control at 140 g/ha: 140 g ai/ha
# Outline: as §1
# [6] = system: SETFA: giant foxtail (Setaria faberi); experiment: Post-emergent herbicidal test, giant foxtail; conditions: post-emergence, 336 h, 14 days after application, read-out: Visual Growth Reduction (%) 14 Days After Application SETFA; for pest or weed control at 17.5 g/ha: 17.5 g ai/ha; for pest or weed control at 35 g/ha: 35 g ai/ha; for pest or weed control at 70 g/ha: 70 g ai/ha; for pest or weed control at 140 g/ha: 140 g ai/ha
# Outline: as §1
# [7] = system: VIOTR: wild violet (Viola tricolor); experiment: Post-emergent herbicidal test, wild violet; conditions: post-emergence, 336 h, 14 days after application, read-out: Visual Growth Reduction (%) 14 Days After Application VIOTR; for pest or weed control at 17.5 g/ha: 17.5 g ai/ha; for pest or weed control at 35 g/ha: 35 g ai/ha; for pest or weed control at 70 g/ha: 70 g ai/ha; for pest or weed control at 140 g/ha: 140 g ai/ha
# Outline: as §1
# [8] = system: EPHHL: wild poinsettia (Euphorbia heterophylla); experiment: Post-emergent herbicidal test, wild poinsettia; conditions: post-emergence, 336 h, 14 days after application, read-out: Visual Growth Reduction (%) 14 Days After Application EPHHL; for pest or weed control at 17.5 g/ha: 17.5 g ai/ha; for pest or weed control at 35 g/ha: 35 g ai/ha; for pest or weed control at 70 g/ha: 70 g ai/ha; for pest or weed control at 140 g/ha: 140 g ai/ha
# Outline: as §1
# [9] = system: CYPES: yellow nutsedge (Cyperus esculentus); experiment: Post-emergent herbicidal test, yellow nutsedge; conditions: post-emergence, 336 h, 14 days after application, read-out: Visual Growth Reduction (%) 14 Days After Application CYPES; for pest or weed control at 17.5 g/ha: 17.5 g ai/ha; for pest or weed control at 35 g/ha: 35 g ai/ha; for pest or weed control at 70 g/ha: 70 g ai/ha; for pest or weed control at 140 g/ha: 140 g ai/ha
# Outline: as §1
# [10] = system: CIRAR: Canada thistle (Cirsium arvense); experiment: Post-emergent herbicidal test, Canada thistle; conditions: post-emergence, 336 h, 14 days after application, read-out: Visual Growth Reduction (%) 14 Days After Application CIRAR; for pest or weed control at 17.5 g/ha: 17.5 g ai/ha; for pest or weed control at 35 g/ha: 35 g ai/ha; for pest or weed control at 70 g/ha: 70 g ai/ha; for pest or weed control at 140 g/ha: 140 g ai/ha
# Outline: as §1
# [11] = system: DIGSA: large crabgrass (Digitaria sanguinalis); experiment: Post-emergent herbicidal test, large crabgrass; conditions: post-emergence, 336 h, 14 days after application, read-out: Visual Growth Reduction (%) 14 Days After Application DIGSA; for pest or weed control at 17.5 g/ha: 17.5 g ai/ha; for pest or weed control at 35 g/ha: 35 g ai/ha; for pest or weed control at 70 g/ha: 70 g ai/ha; for pest or weed control at 140 g/ha: 140 g ai/ha
# Outline: as §1
structure (smiles),measurement,setting,value
COC(=O)c1nc(-c2ccc(Cl)c3c2OC(F)(F)O3)c(Cl)c(N)c1Cl [Compound 13],pest or weed control at 17.5 g/ha,[1],0%
same,pest or weed control at 35 g/ha,[1],0%
same,pest or weed control at 70 g/ha,[1],0%
same,pest or weed control at 140 g/ha,[1],0%
same,pest or weed control at 17.5 g/ha,[2],40%
same,pest or weed control at 35 g/ha,[2],60%
same,pest or weed control at 70 g/ha,[2],70%
same,pest or weed control at 140 g/ha,[2],80%
same,pest or weed control at 17.5 g/ha,[3],0%
same,pest or weed control at 35 g/ha,[3],0%
same,pest or weed control at 70 g/ha,[3],0%
same,pest or weed control at 140 g/ha,[3],0%
same,pest or weed control at 17.5 g/ha,[4],0%
same,pest or weed control at 35 g/ha,[4],10%
same,pest or weed control at 70 g/ha,[4],20%
same,pest or weed control at 140 g/ha,[4],30%
same,pest or weed control at 17.5 g/ha,[5],30%
same,pest or weed control at 35 g/ha,[5],50%
same,pest or weed control at 70 g/ha,[5],75%
same,pest or weed control at 140 g/ha,[5],80%
same,pest or weed control at 17.5 g/ha,[6],0%
same,pest or weed control at 35 g/ha,[6],0%
same,pest or weed control at 70 g/ha,[6],0%
same,pest or weed control at 140 g/ha,[6],0%
same,pest or weed control at 17.5 g/ha,[7],0%
same,pest or weed control at 35 g/ha,[7],0%
same,pest or weed control at 70 g/ha,[7],0%
same,pest or weed control at 140 g/ha,[7],0%
same,pest or weed control at 17.5 g/ha,[8],0%
same,pest or weed control at 35 g/ha,[8],0%
same,pest or weed control at 70 g/ha,[8],0%
same,pest or weed control at 140 g/ha,[8],0%
same,pest or weed control at 17.5 g/ha,[9],0%
same,pest or weed control at 35 g/ha,[9],0%
same,pest or weed control at 70 g/ha,[9],0%
same,pest or weed control at 140 g/ha,[9],0%
same,pest or weed control at 17.5 g/ha,[10],50%
same,pest or weed control at 35 g/ha,[10],60%
same,pest or weed control at 70 g/ha,[10],80%
same,pest or weed control at 140 g/ha,[10],85%
same,pest or weed control at 17.5 g/ha,[11],0%
same,pest or weed control at 35 g/ha,[11],0%
same,pest or weed control at 70 g/ha,[11],0%
same,pest or weed control at 140 g/ha,[11],0%
Nc1c(F)c(-c2ccc(Cl)c3c2OCO3)nc(C(=O)OCc2ccccc2)c1Cl [Compound 1B],pest or weed control at 17.5 g/ha,[1],0%
same,pest or weed control at 35 g/ha,[1],0%
same,pest or weed control at 70 g/ha,[1],0%
same,pest or weed control at 140 g/ha,[1],0%
same,pest or weed control at 17.5 g/ha,[2],95%
same,pest or weed control at 35 g/ha,[2],100%
same,pest or weed control at 70 g/ha,[2],100%
same,pest or weed control at 140 g/ha,[2],100%
same,pest or weed control at 17.5 g/ha,[3],25%
same,pest or weed control at 35 g/ha,[3],50%
same,pest or weed control at 70 g/ha,[3],60%
same,pest or weed control at 140 g/ha,[3],85%
same,pest or weed control at 17.5 g/ha,[4],0%
same,pest or weed control at 35 g/ha,[4],0%
same,pest or weed control at 70 g/ha,[4],0%
same,pest or weed control at 140 g/ha,[4],10%
same,pest or weed control at 17.5 g/ha,[5],90%
same,pest or weed control at 35 g/ha,[5],95%
same,pest or weed control at 70 g/ha,[5],100%
same,pest or weed control at 140 g/ha,[5],100%
same,pest or weed control at 17.5 g/ha,[6],0%
same,pest or weed control at 35 g/ha,[6],0%
same,pest or weed control at 70 g/ha,[6],20%
same,pest or weed control at 140 g/ha,[6],50%
same,pest or weed control at 17.5 g/ha,[7],40%
same,pest or weed control at 35 g/ha,[7],75%
same,pest or weed control at 70 g/ha,[7],60%
same,pest or weed control at 140 g/ha,[7],75%
same,pest or weed control at 17.5 g/ha,[8],10%
same,pest or weed control at 35 g/ha,[8],10%
same,pest or weed control at 70 g/ha,[8],15%
same,pest or weed control at 140 g/ha,[8],10%
same,pest or weed control at 17.5 g/ha,[9],75%
same,pest or weed control at 35 g/ha,[9],85%
same,pest or weed control at 70 g/ha,[9],85%
same,pest or weed control at 140 g/ha,[9],90%
same,pest or weed control at 17.5 g/ha,[10],75%
same,pest or weed control at 35 g/ha,[10],80%
same,pest or weed control at 70 g/ha,[10],85%
same,pest or weed control at 140 g/ha,[10],90%
same,pest or weed control at 17.5 g/ha,[11],0%
same,pest or weed control at 35 g/ha,[11],0%
same,pest or weed control at 70 g/ha,[11],20%
same,pest or weed control at 140 g/ha,[11],50%
